Assay results as given in patent US7737166B2, “Antifungal bicyclic hetero ring compounds” (Daiichi Sankyo Company, Limited, priority 2005, dated 2010).
Converted amounts (≈) assume the structure as drawn.

How the values were obtained:
C. albicans ATCC MYA-573 = assay: Antifungal activity (GI80), growth inhibition in YPD20 medium by absorbance at 600 nm; type: cell-based; details: Candida albicans, minimum concentration for at least 80% cell growth inhibition, 37° C., absorbance 600 nm, read-out: GI80 (μg/ml) C. albicans ATCC MYA-573
Protocol: (§1) The antifungal activity of the compounds of the invention was determined according to the method mentioned below.
(§2) An YPD20 medium (1% yeast extract, 2% peptone, 20% glucose) was used,
(§3) (2) Preparation of Cell Liquid for Inoculation:
(§4) Cells incubated overnight with Sabouraud dextrose agar at 30° C. were suspended in 0.1% Tween 80-added saline, and then added to a concentrated medium (1.33% yeast extract, 2.67% peptone, 13.33% glucose) so that the final cell concentration could be 5×10^3 cells/ml, thereby preparing a cell liquid for inoculation.
(§5) (3) Production of Chemical Dilution Plate:
(§6) A metered sample was dissolved in dimethyl sulfoxide, and a 2-fold dilution series was prepared using dimethyl sulfoxide. A chemical dilution of 2 μl each was added to a flat-bottom 96-well plate with 40% glucose (48 μl) put in each well, thereby producing a chemical dilution plate.
(§7) (4) Inoculation and Cultivation of Cell Liquid:
(§8) The cell liquid (150 μl) prepared in (2) was added to the chemical dilution plate produced in (3), followed by aerobic static cultivation at 37° C.
(§9) (5) Determination of Antifungal Activity (GI80 Value):
(§10) After cultivation for […], the plate was stirred, and its absorbance (600 nm) was measured. Based on the absorbance as the index, the minimum chemical concentration for at least 80% cell growth inhibition relative to the cell growth in the chemical-free well was computed as a GI80 value.

C. albicans ATCC90028 = assay: as above; type: cell-based; details: Candida albicans, ATCC90028, minimum concentration for at least 80% cell growth inhibition, 37° C., absorbance 600 nm, read-out: GI80 (μg/ml) C. albicans ATCC90028
Protocol: as §1, §2, §3, §4, §5, §6, §7, §8, §9, §10

C. glabrata ATCC48435 = assay: as above; type: cell-based; details: Nakaseomyces glabratus, ATCC48435, minimum concentration for at least 80% cell growth inhibition, 37° C., absorbance 600 nm, read-out: GI80 (μg/ml) C. glabrata ATCC48435
Protocol: as §1, §2, §3, §4, §5, §6, §7, §8, §9, §10

Row | Structure (SMILES) | melting point | IC80 (C. albicans ATCC MYA-573) [µg/mL] | IC80 (C. albicans ATCC90028) [µg/mL] | IC80 (C. glabrata ATCC48435) [µg/mL]
1 | CN[C@H]1CCN(c2c(-c3ccccc3)c(C)c(C#N)c3nc(C(=O)N(C)C)oc23)C1 [Example 40-1, 4-Cyano-N,N,5-trimethyl-7-[(3S)-3-(methylamino)pyrrolidin-1-yl]-6-phenyl-1,3-benzoxazole-2-carboxamide] | 148 to 151 °C | 0.25 (≈ 0.62 µM) | 0.25 (≈ 0.62 µM) | 0.032 (≈ 0.0793 µM)
2 | Cc1nc(-c2c(C)c(C#N)c3nc(C(=O)N(C)C)oc3c2N2CC[C@H](N(C)C)C2)cs1 [Example 51, 4-Cyano-7-[(3S)-3-(dimethylamino)pyrrolidin-1-yl]-N,N,5-trimethyl-6-(2-methyl-1,3-thiazol-4-yl)-1,3-benzoxazole-2-carboxamide] | 153 to 156 °C | 1 (≈ 2.28 µM) | 1 (≈ 2.28 µM) | 0.25 (≈ 0.57 µM)
3 | Cc1nc(-c2c(C)c(C#N)c3nc(C4CC4)oc3c2N2CC[C@H](N(C)C)C2)cs1 [Example 23, 2-Cyclopropyl-7-[(3S)-3-(dimethylamino)pyrrolidin-1-yl]-5-methyl-6-(2-methyl-1,3-thiazol-4-yl)-1,3-benzoxazole-4-carbonitrile] | 167 to 168 °C | 1 (≈ 2.45 µM) | 1 (≈ 2.45 µM) | 0.5 (≈ 1.23 µM)
4 | Cc1c(-c2ccccc2)c(N2CC[C@H](N(C)C)C2)c2oc(-c3ccccn3)nc2c1C#N [Example 35, 7-[(3S)-3-(Dimethylamino)pyrrolidin-1-yl]-5-methyl-6-phenyl-2-(pyridin-2-yl)-1,3-benzoxazole-4-carbonitrile] | 227 to 233 °C | 0.25 (≈ 0.59 µM) | 0.25 (≈ 0.59 µM) | 0.032 (≈ 0.0756 µM)
5 | Cc1c(-c2ccccc2)c(N2CCC(N(C)C)C2)c2oc(C(C)(C)CO)nc2c1C#N (stereo not shown) [Example 14, 7-[3-(Dimethylamino)pyrrolidin-1-yl]-2-(2-hydroxy-1,1-dimethylethyl)-5-methyl-6-phenyl-1,3-benzoxazole-4-carbonitrile] | 175 to 178 °C | 0.25 (≈ 0.597 µM) | 0.25 (≈ 0.597 µM) | 0.125 (≈ 0.299 µM)
6 | Cc1c(-c2ccccc2)c(N2CC[C@H](N(C)C)C2)c2oc(C(=O)N(C)C)nc2c1C#N [Example 40, 4-Cyano-7-[(3S)-3-(dimethylamino)pyrrolidin-1-yl]-N,N,5-trimethyl-6-phenyl-1,3-benzoxazole-2-carboxamide] | 139 to 142 °C | 0.063 (≈ 0.151 µM) | 0.063 (≈ 0.151 µM) | 0.016 (≈ 0.0383 µM)
7 | CN[C@@H]1CCN(c2c(-c3ccccc3)c(C)c(C#N)c3nc(C(=O)N(C)C)oc23)C1 [Example 40-3, 4-Cyano-N,N,5-trimethyl-7-[(3R)-3-(methylamino)pyrrolidin-1-yl]-6-phenyl-1,3-benzoxazole-2-carboxamide] | 145 to 148 °C | – | – | –
8 | Cc1c(-c2cccn2C)c(N2CC[C@H](N(C)C)C2)c2oc(C3CC3)nc2c1C#N [Example 22, 2-Cyclopropyl-7-[(3S)-3-(dimethylamino)pyrrolidin-1-yl]-5-methyl-6-(1-methyl-1H-pyrrol-2-yl)-1,3-benzoxazole-4-carbonitrile] | 127 to 128 °C | 1 (≈ 2.57 µM) | 0.5 (≈ 1.28 µM) | 0.5 (≈ 1.28 µM)
9 | Cc1cc2c(c(N3CC[C@H](N(C)C)C3)c1-c1ccccc1)OC(C#N)(C(=O)N1CCCCC1)N2 (stereo partly drawn) [Example 43, 7-[(3S)-3-(dimethylamino)pyrrolidin-1-yl]-5-methyl-6-phenyl-2-(piperidin-1-ylcarbonyl)-1,3-benzoxazole-2-carbonitrile] | 170 to 173 °C | – | – | –
10 | Cc1c(-c2cnccn2)c(N2CC[C@H](N(C)C)C2)c2oc(C3CC3)nc2c1C#N [Example 21, 2-Cyclopropyl-7-[(3S)-3-(dimethylamino)pyrrolidin-1-yl]-5-methyl-6-(pyrazin-2-yl)-1,3-benzoxazole-4-carbonitrile] | 157 to 159 °C | – | – | –
11 | Cc1c(-c2ccccc2)c(N2CC[C@H](N(C)C)C2)c2oc(C(C)(C)C)nc2c1C#N.Cl [Example 1, 2-tert-Butyl-7-[(3S)-3-(dimethylamino)pyrrolidin-1-yl]-5-methyl-6-phenyl-1,3-benzoxazole-4-carbonitrile hydrochloride] | 198 to 201 °C (dec.) | 0.063 | 0.063 | 0.032
12 | Cc1c(-c2ccccc2)c(N2CC[C@H](N(C)C)C2)c2oc(N3CC(CC(=O)O)C3)nc2c1C#N | 125 to 128 °C | – | – | –
13 | CN[C@H]1CCN(c2c(-c3ccccc3)c(C)c(C#N)c3nc(C(C)(C)C)oc23)C1.Cl [Example 2, 2-tert-Butyl-5-methyl-7-[(3S)-3-(methylamino)pyrrolidin-1-yl]-6-phenyl-1,3-benzoxazole-4-carbonitrile hydrochloride] | 237 to 240 °C (dec.) | 0.25 | 0.5 | 0.125
14 | Cc1c(-c2ccccc2)c(N2CC(N(C)C)C2)c2oc(C(C)(C)C)nc2c1C#N [Example 15, 2-Tert-butyl-5-methyl-7-(3-dimethylaminoazetidin-1-yl)-6-phenyl-1,3-benzoxazole-4-carbonitrile] | 211 to 212 °C | – | – | –
15 | Cc1c(-c2ccccc2)c(N2CC[C@H](N(C)C)C2)c2oc(N3CC(C)(O)C3)nc2c1C#N [Example 99, 7-[(3S)-3-(Dimethylamino)-1-pyrrolidinyl]-2-(3-hydroxy-3-methylazetidin-1-yl)-5-methyl-6-phenyl-1,3-benzoxazole-4-carbonitrile] | 167 to 169 °C | – | – | –
16 | Cc1c(-c2ccccc2)c(N2CC[C@H](N(C)C)C2)c2oc(N3CC(CO)C3)nc2c1C#N [Example 98, 7-[(3S)-3-(Dimethylamino)pyrrolidin-1-yl]-2-[3-(hydroxymethyl)azetidin-1-yl]-5-methyl-6-phenyl-1,3-benzoxazole-4-carbonitrile] | 48 to 51 °C | 0.5 (≈ 1.16 µM) | 0.5 (≈ 1.16 µM) | 0.125 (≈ 0.29 µM)

Second part, led by results:

Row | melting point | Structure (SMILES) | IC80 (C. albicans ATCC MYA-573) [µg/mL] | IC80 (C. albicans ATCC90028) [µg/mL] | IC80 (C. glabrata ATCC48435) [µg/mL]
17 | 172 to 174 °C | CN[C@@]1(C)CCN(c2c(-c3ccccc3)c(C)c(C#N)c3nc(C(=O)N(C)C)oc23)C1 [Example 159, 4-Cyano-N,N,5-trimethyl-7-[(3S)-3-methyl-3-(methylamino)pyrrolidin-1-yl]-6-phenyl-1,3-benzoxazole-2-carboxamide] | 0.063 (≈ 0.151 µM) | 0.063 (≈ 0.151 µM) | < 0.016
18 | 191 to 194 °C | Cc1c(-c2ccccc2N)c(N2CC[C@H](N(C)C)C2)c2oc(C3CC3)nc2c1C#N [Example 144-13, 6-(2-Aminophenyl)-2-cyclopropyl-7-[(3S)-3-(dimethylamino)pyrrolidin-1-yl]-5-methyl-1,3-benzoxazole-4-carbonitrile] | 1 (≈ 2.49 µM) | 1 (≈ 2.49 µM) | 0.5 (≈ 1.25 µM)
19 | 130 to 132 °C | Cc1c(-c2ccccc2)c(N2CC[C@H](N(C)C)C2)c2oc(C(C)(C)F)nc2c1C#N [Example 148, 7-[(3S)-3-(Dimethylamino)pyrrolidin-1-yl]-2-(1-fluoro-1-methylethyl)-5-methyl-6-phenyl-1,3-benzoxazole-4-carbonitrile] | 0.063 (≈ 0.155 µM) | 0.032 (≈ 0.0787 µM) | < 0.016
20 | 104 to 107 °C | Cc1c(-c2cccc(CF)c2)c(N2CC[C@H](N(C)C)C2)c2oc(C3CC3)nc2c1C#N [Example 144-10, 2-Cyclopropyl-7-[(3S)-3-(dimethylamino)pyrrolidin-1-yl]-6-[3-(fluoromethyl)phenyl]-5-methyl-1,3-benzoxazole-4-carbonitrile] | – | – | –
21 | 172 to 174 °C | Cc1c(-c2ccccc2)c(C2=CCNC2)c2oc(C3CC3)nc2c1C#N [Example 153, 2-Cyclopropyl-7-(2,5-dihydro-1H-pyrrol-3-yl)-5-methyl-6-phenyl-1,3-benzoxazole-4-carbonitrile] | – | – | –
22 | 209 to 211 °C | CCN[C@H]1CCN(c2c(-c3ccccc3)c(C)c(C#N)c3nc(C4CC4)oc23)C1 [Example 138, 2-Cyclopropyl-7-[(3S)-3-(ethylamino)pyrrolidin-1-yl]-5-methyl-6-phenyl-1,3-benzoxazole-4-carbonitrile] | – | – | –
23 | 159 to 162 °C | Cc1c(-c2ccccc2)c(N2CC[C@H](N(C)C)C2)c2oc(-c3ccccc3O)nc2c1C#N [Example 110, 7-[(3S)-3-(Dimethylamino)pyrrolidin-1-yl]-2-(2-hydroxyphenyl)-5-methyl-6-phenyl-1,3-benzoxazole-4-carbonitrile] | – | – | –
24 | 178 to 180 °C | CN[C@@]1(C)CCN(c2c(-c3cccc(F)c3)c(C)c(C#N)c3nc(C(=O)N(C)C)oc23)C1 [Example 157, 4-Cyano-6-(3-fluorophenyl)-N,N,5-trimethyl-7-[(3S)-3-methyl-3-(methylamino)pyrrolidin-1-yl]-1,3-benzoxazole-2-carboxamide] | – | – | –
25 | 259 to 263 °C | Cc1c(-c2ccccc2)c(N2CC[C@H](N(C)C)C2)c2oc(-c3ccccc3N)nc2c1C#N [Example 109, 2-(2-Aminophenyl)7-[(3S)-3-(dimethylamino)pyrrolidin-1-yl]-5-methyl-6-phenyl-1,3-benzoxazole-4-carbonitrile] | – | – | –
